{"source": "patent US20200069702A1", "about": "“ORAL PHARMACEUTICAL COMPOSITIONS COMPRISING AN UNMICRONIZED SELECTIVE PROGESTERONE RECEPTOR AS ACTIVE AGENT” (Repros Therapeutics Inc., priority 2016, published 2020)", "test_system": "uterine fibroids", "assay": "Phase 2 study of orally administered Formulation B in women with uterine fibroids", "format": "in vivo, human", "from_the_text": "After menses occurred, a second 18 week course of treatment followed."}
{"smiles": "COCC(=O)[C@@]1(OC(C)=O)CC[C@H]2[C@@H]3CCC4=CC(=O)CCC4=C3[C@@H](c3ccc(N(C)C)cc3)C[C@@]21C", "note": "[CDB-4124, 21-methoxy-17a-acetoxy-11β-(4 N, N-dimethylaminophenyl)-19-norpregna-4,9-diene-3,20-dione]", "values": [{"measurement": "reduction in fibroid size (volume) compared to baseline", "setting": "oral 12 mg once per day, after two 18 week cycles, median, p=0.0004 vs placebo", "value": 64.9, "unit": "%"}, {"measurement": "subjects who achieved amenorrhea", "setting": "oral 12 mg once per day, end of second 18 week course (36 weeks total active treatment)", "value": 100, "unit": "%"}, {"measurement": "improvement in Uterine Fibroid Symptom Severity Score (UFSQOL), LOCF median", "setting": "oral 12 mg once per day, p=0.0211 vs placebo", "value": 70.9, "unit": "%"}, {"measurement": "subjects who achieved amenorrhea", "setting": "vaginally treated subjects (comparison)", "value": 50, "unit": "%"}]}
